# Values quoted from earlier work, collected in patent US10751297B2, “Composition and method for treating skin conditions” (priority 2017, dated 2020).
# How the values were obtained:
# [1] = test system: acyclovir-resistant HSV strains
# [2] = test system: herpes simplex virus; conditions: in vitro
# [3] = test system: Friend virus; conditions: in vivo
# [4] = test system: cells
# [5] = test system: respiratory syncytial virus; conditions: in vitro
# [6] = test system: HIV-1; conditions: in vitro
# [7] = test system: early viral protein synthesis
smiles,measurement,setting,value
CCCCCCCCCCCCCCCCCCCCCCO [docosanol],effectiveness in acyclovir-resistant HSV strains,[1],effective
same,antiviral activity against herpes simplex virus,[2],potent antiviral activity
same,antiviral activity against Friend virus,[3],potent antiviral activity
same,concentration up to which not cytotoxic,[4],up to 300 mM
same,antiviral activity against respiratory syncytial virus,[5],potent antiviral activity
same,antiviral activity against HIV-1,[6],potent antiviral activity
same,inhibition of early viral protein synthesis,[7],more than 80%
